Laboratory results from patent publication US20200165194A1, “ADDITIVE COMPOSITION FOR CULTURE MEDIUM, ADDITIVE COMPOUND FOR CULTURE MEDIUM, AND METHOD FOR CULTURE OF CELLS OR TISSUE USING SAME” (NISSAN CHEMICAL CORPORATION, priority 2017, published 2020).

Key:
Format in all cases: cell-based
[1] = system: Human mesenchymal stem cells (hMSC); test: Human mesenchymal stem cells-1: viable cell count, 2D and 3D culture (Experimental Example 9); settings: for cell proliferation rate (relative value): hMSC, 10 μM, 7 days, compound non-addition = 1; for number of hMSC cells (in words): two-dimensional and three-dimensional cell culture conditions
Description: Human mesenchymal stem cells (hMSC, manufactured by TOYOBO) were precultured by a single layer culture method (2D) using an MF-medium mesenchymal stem cell proliferation medium (manufactured by TOYOBO). In three-dimensional culture method (3D), hMSC were suspended in a medium composition added with deacylated gellan gum, and seeded in a […] flat bottom Ultr-low Attachment surface plate (manufactured by Corning Incorporated, #3471) at 1.2×10^5 cells/2 mL/well. In 2D, hMSC were suspended in a deacylated gellan gum-free medium composition, and seeded in a 6-well flat bottom plate (manufactured by Corning Incorporated, #3516) at 4.0×10^4 cells/2 mL/well. […] As a control, DMSO was added at a final concentration of 0.1%. Seven days later, in the three-dimensional culture method, cells were collected from the wells, washed with PBS, and the supernatant was removed. Then, a trypsin 0.25 w/v % trypsin-1 mmol/L EDTA (ethylenediaminetetraacetic acid) solution (manufactured by Wako Pure Chemical Industries, Ltd.) was added and the cells were incubated at 37° C. for 2-5 min to disperse the spheres into single cells. The medium was added, and the mixture was centrifuged to remove the supernatant. Thereafter, the cells were resuspended in the same medium, a part was suspended in Trypan Blue (manufactured by Wako Pure Chemical Industries, Ltd.), and the number of viable cells was counted using automatic cell counter TC20 (manufactured by BIO-RAD).
In a single layer culture method, the cells were washed with PBS, 0.25 w/v % trypsin-1 mmol/L EDTA solution was added, and the cells were detached by incubating at 37° C. for 2-5 min. The medium was added, the mixture was centrifuged and the supernatant was removed. Thereafter, the cells were resuspended in the same medium, a part was suspended in Trypan Blue (manufactured by Wako Pure Chemical Industries, Ltd.) and the number of viable cells was counted using TC-20 (manufactured by BIO-RAD).
CD34 antibody (APC, manufactured by BD Bioscience), CD73 (BV421, manufactured by BD Bioscience), CD29 (BB515, manufactured by BD Bioscience) were added to the above-mentioned cell suspension, and the mixture was incubated on ice for 30 min. The cells were washed twice with 2% SM buffer (2% FBS/PBS), SM containing 1 μg/mL of Propidium Iodide (PI) was added, and the mixture was analyzed with FACSAria (manufactured by Becton Dickinson). The cell number with compound non-addition (control) was taken as 1, and relative value with addition of each compound is calculated in the fifteenth table. The positive rates or negative rates of CD34, CD73, and CD29 of cells after three-dimensional culture (3D) under the conditions with no addition or addition of the compound are shown in the sixteenth table.

[2] = system: human epithelial-like cell cancer-derived cell line A431; test: Cells cultured by hanging drop method, ATP assay (Experimental Example 12); settings: for cell number (in words): A431 cell line, three-dimensional cell culture by the hanging drop method; for cell number (relative value): A431 cell, hanging drop, 5 μM, 2 days, control = 100%
Description: (§1) Human epithelial-like cell cancer-derived cell line A431 (manufactured by ATCC) was cultured using 10% FBS and 1% MEM non-essential amino acid solution (MEM NEAA, manufactured by Wako Pure Chemical Industries, Ltd.)-containing EMEM (manufactured by Wako Pure Chemical Industries, Ltd.)). In addition, bone marrow-derived human mesenchymal stem cells (BM-hMSC, manufactured by PromoCell) were cultured using a mesenchymal stem cell proliferation medium (manufactured by PromoCell). Each of the above-mentioned cells in the logarithmic growth phase was washed with PBS, a 0.25 w/v % trypsin-1 mmol/L EDTA (ethylenediaminetetraacetic acid) solution (manufactured by Wako Pure Chemical Industries, Ltd.) was added, and the cells were detached by incubating at 37° C. for 3 min. Each medium was added, the mixture was centrifuged, and the supernatant was removed.
(§2) The cell suspension was seeded by 10 μL in 15 drops on the back surface of the lid of a 3.5 cm dish (manufactured by Falcon, #351008) to form droplets. At this time, as a control, a medium supplemented with DMSO (final concentration of DMSO: 0.05%) was seeded by 10 μL in 15 drops. The lid was returned to a 3.5 cm dish added with 2 mL of PBS, and cultured for 2 days in an incubator at 37° C., 5% CO2. The cultured droplets were collected in a 1.5 mL tube, and the medium was added to a final volume of 150 μL.

[3] = system: Bone marrow-derived human mesenchymal stem cells (BM-hMSC); test: as above; settings: for cell number (relative value): BM-hMSC, hanging drop, 5 μM, 2 days, control = 100%; for cell number (in words): bone marrow-derived human mesenchymal stem cells, hanging drop method
Description: as §1, §2

[4] = system: Canine kidney renal tubule epithelial cells (MDCK cells); test: MDCK cells-2: Cyst formation on Matrigel, size and number of Cysts (Experimental Example 8); settings: for proportion of Cysts of 70 μm or more: 6 days, control 35%; for Cyst morphology, confocal fluorescence microscope (in words): FIG. 1
Description: Canine kidney renal tubule epithelial cells (MDCK cells, manufactured by DS PHARMA BIO MEDICAL) were precultured in EMEM medium containing 10% FBS and 1% NEAA. Cold Matrigel (registered trade mark) Matrix GFR (manufactured by Corning) was spread on a 24-well plate by 50 μL and fixed by incubating at 37° C. for 15 min. The aforementioned MDCK cells were suspended in a medium at 10000 cells/mL, cold Matrigel (registered trade mark) Matrix GFR was added at 20 μL/mL and seeded at 1 mL/well. […] As a control (compound no-addition), DMSO was added at a final concentration of 0.1%. Six days later, the size and number of Cysts formed were measured using Cell^3iMager (manufactured by Screen Inc.). The proportion of the Cysts of 70 μm or more in the entire Cysts is shown in the fourteenth table.
The cells were washed with PBS (1 mL/well), 4% paraformaldehyde/PBS (manufactured by Wako Pure Chemical Industries, Ltd.) was added (1 mL/well) and fixed at room temperature for 20 min. Thereafter, the supernatant was removed, IF buffer (0.2% Triton X-100 (manufactured by Sigma-Aldrich), 0.05% Tween 20 (manufactured by Sigma-Aldrich)-containing PBS) were added at 1 mL/well, stood for 30 min and removed. Penetration buffer (0.5% Triton X-100 (manufactured by Sigma-Aldrich)/PBS) was added at 1 mL/well and incubated at room temperature for 30 min. The supernatant was removed, washed 3 times every 5 min with IF buffer, blocking buffer (1% BSA (manufactured by Sigma-Aldrich)/IF buffer) was added at 0.5 mL/well and incubated for 30 min. The supernatant was removed, an anti-P catenin antibody (manufactured by BD Bioscience) diluted 100-fold with blocking buffer was added at 250 μL/well, and the cells were incubated at room temperature for 60 min. The cells were washed 3 times every 5 min with IF buffer, the secondary antibody (Alexa Fluor 555, manufactured by Thermo Fisher Scientific) and Phalloidin (Alexa Fluor 488, manufactured by Thermo Fisher Scientific), each diluted 250-fold with blocking buffer, were added at 250 μL/well, and the cells were incubated at room temperature in shading for 60 min.

Row | SMILES | cell proliferation rate (relative value) ([1]; 2D) | cell proliferation rate (relative value) ([1]; 3D (deacylated gellan gum)) | number of hMSC cells (in words) [1] | cell number (in words) [2] | cell number (relative value) [2] | cell number (relative value) [3] | cell number (in words) [3] | proportion of Cysts of 70 μm or more in the entire Cysts (in words) [4] | proportion of Cysts of 70 μm or more ([4]; 5 μM) | proportion of Cysts of 70 μm or more ([4]; 10 μM) | Cyst morphology, confocal fluorescence microscope (in words) [4]
1 | CC/C(=N\NC(=O)Nc1ccccc1)c1ccc(O)c(C)c1O [k-1:H-10] | 1.3 | 1.7 | showed an effect of increasing the number of hMSC cells | – | – | – | – | – | – | – | –
2 | CCC(=NNC(=O)C(CC)Nc1ccccc1)c1ccc(O)c(C)c1O (stereo not shown) [k-1:H-7] | 1.9 | 4 | showed an effect of increasing the number of hMSC cells | showed an effect of increasing the number | 232% | 206% | showed an effect of increasing the number | – | – | – | –
3 | CC/C(=N\NC(=O)C(C)Nc1ccccc1)c1ccc(O)c(C)c1O (stereo not shown) [k-1:B-1] | – | – | – | showed an effect of increasing the number | 227% | 223% | showed an effect of increasing the number | increased | 72% | 68% | a normal Cyst was formed
4 | CC/C(=N\NC(=O)NCc1ccccc1)c1ccc(O)c(C)c1O [k-1:I-1] | – | – | – | – | – | – | – | increased | 39% | 43% | a normal Cyst was formed
